The values that follow come from patent US20180326102A1, “SYSTEMS, METHODS, AND COMPOSITIONS FOR IMAGING ANDROGEN RECEPTOR AXIS ACTIVITY IN CARCINOMA, AND RELATED THERAPEUTIC COMPOSITIONS AND METHODS” (Memorial Sloan Kettering Cancer Center, priority 2015, published 2018).

The test system of series [1] is Pb_KLK2×Hi-Myc mice. Format: in vivo. The method, then:
A final clinical simulation involved non-invasive imaging of the impact of different degrees of inhibition on AR activity in the tumor (intratumoral) and prostate itself (intraprostatic). Progression of disease was initially monitored in 14 Pb_KLK2 XHi-Myc mice using ^89Zr-11B6 PET. Thereafter, mice were randomized into 3 treatment groups: vehicle (n=4), castration (n=6), or castration plus Enzalutamide (n=4).
PET imaging experiments were conducted on a micro-PET Focus 120 scanner (Concorde Microsystems). In initial studies, mice (n=4) were administered formulations of ^89Zr-11B6 [3.7-5.55 MBq (100-150 μCi), 300, 100, 50, or 25 μg of protein, in 150 μL sterile saline for injection] through i.v. Tail-vein injection. Approximately 5 minutes before recording PET images, mice were anesthetized by inhalation of 1% to 2% isoflurane (Baxter Healthcare)/oxygen gas mixture and placed on the scanner bed. PET images were recorded at various time points between 1 and 344 hours post-injection. […] For all static images, scan time was adjusted to ensure between 15-25 million coincident events were recorded.
Site-directed mutagenesis of APLILSR to APLRTKR at positions […], -3, and -2 the zymogen sequence of KLK2 was performed using a Quick Change Lightning Mutagenesis Kit (Stratagene). […] Mice were monitored closely in accordance with IACUC-established guidelines and RARC animal protocol (#04-01-002).

Series [2] deals with VCaP. Put plainly: 18F-FDHT imaging in VCaP bearing mouse. The class given is in vivo. The conditions noted are these: 1.5 h after administration. As for the experimental part:
The distribution at 1.5 h after administration in a representative VCaP (arrow) bearing mouse. ^18F-FDHT is a radiolabeled analog of the non-aromatizable dihydrotestosterone.

Square brackets hold non-standard residues; d marks the D form. Peptide text beside a SMILES is read from it. * marks the point of attachment. dPhe(4-NHCONH2) = NC(=O)Nc1ccc(C[C@@H](N)C(=O)O)cc1; Dihydroorotyl(S) = O=C1C[C@@H](C(=O)*)NC(=O)N1; dPhe(4-Cl) = N[C@H](Cc1ccc(Cl)cc1)C(=O)O; Phe(4-NH2) = Nc1ccc(C[C@H](N)C(=O)O)cc1; d2Nal = N[C@H](Cc1ccc2ccccc2c1)C(=O)O; Lys(iPr) = CC(C)NCCCC[C@H](N)C(=O)O; d3Pal = N[C@H](Cc1cccnc1)C(=O)O

Turning to `CC(=O)N[C@H](Cc1ccc2ccccc2c1)C(=O)N[C@H](Cc1ccc(Cl)cc1)C(=O)N[C@H](Cc1cccnc1)C(=O)N[C@@H](CO)C(=O)N[C@@H](Cc1ccc(NC(=O)[C@@H]2CC(=O)NC(=O)N2)cc1)C(=O)N[C@H](Cc1ccc(NC(N)=O)cc1)C(=O)N[C@@H](CC(C)C)C(=O)N[C@@H](CCCCNC(C)C)C(=O)N1CCC[C@H]1C(=O)N[C@H](C)C(N)=O` [Degarelix] (Ac-[d2Nal][dPhe(4-Cl)][d3Pal]S[Phe(4-NH2)](Dihydroorotyl(S))[dPhe(4-NHCONH2)]L[Lys(iPr)]P[dA]-NH2), the “^89Zr-11B6 uptake (AR pathway readout) during GnRH antagonist therapy” value in series [1] (depot injections, androgen ablation for 2 months) is listed as “decreased following castration but reemerged at the end of the treatment period”.
Take `CNC(=O)c1ccc(N2C(=S)N(c3ccc(C#N)c(C(F)(F)F)c3)C(=O)C2(C)C)cc1F` [Enzalutamide]: in series [1] (castration plus Enzalutamide, n=4), the “reactivation of ^89Zr-11B6 uptake (AR activity) after castration plus adjuvant androgen receptor blockade” value is given as “not significant”.
For `CC12CCC(=O)CC1CCC1C2CCC2(C)C(O)C([18F])CC12` (stereo not drawn) [^18F-FDHT], the “Liver, bile and kidney uptake relative to tumor uptake” value in series [2] is reported as “equivalent to or exceeds tumor uptake”.
